Patent publication US9365851B2, “Spalt-like transcription factor 4 (SALL4) and uses thereof” (National University of Singapore, priority 2011, dated 2016)
Like-named read-outs stand apart in the source and are kept apart here.

Columns and labels:
HDAC complex = target: T1, HDAC complex (Homo sapiens, UniProt Q09028); experiment: Fluorescent polarization competitive binding in SNU-398 nuclear extracts; conditions: unlabeled peptide competing with FITC-labeled peptide
T1 construct: endogenous in cells; host or cells: SNU-398 nuclear extract
Experimental: Below are the amino acid sequences of the peptides used in this study. In the mutant peptide (mut), Lys 5 is replaced with an alanine residue. […] In the first lane marked “Input”, 10% of the extracts were subjected to western blot analysis without immunoprecipitation. […] Extracts were subsequently immunoprecipitated with anti-FITC antibody and the complexes pulled down were subjected to an HDAC activity assay as described in the methods. TSA was added at a concentration of 100 nM. Input is the sample in which 10% of the extract was assayed for HDAC activity without the immunoprecipitation step. […] Competitive binding of nonlabeled wild type or scrambled peptides was measured by fluorescent polarization. […] The fluorescent polarization (y axis) is decreased if the FITC-labeled peptide is displaced from a larger complex.
Next tested was the binding affinity of the wild type and scrambled peptides to the HDAC complex. For this, Fluorescent Polarization (FP), a technology based on molecular movement and rotation in which fluorescent molecules are excited with polarized light, was used. If the fluorescent molecules are part of a large complex, they rotate less and the emitted light has high polarity. In contrast, smaller molecules rotate faster and have low polarity (“depolarized”). […] Using this approach, FITC-labeled wild type or scrambled peptides were first mixed with nuclear extracts from SNU-398 cells. Serial dilutions of unlabeled wild type or scrambled peptides were then added as competitors respectively, and measured by FP assay.

HDAC = HDAC activity assay of peptide pull-down complex (SNU-398 nuclear extracts); type: biochemical, human; conditions: compared to IgG control
Experimental: Assay was performed with the Fluorescent HDAC Assay Kit (Active Motif) having the following modifications: Following the pull down described in Western Blotting section the proteins bound to the beads were eluted in buffer containing 20 mM HEPES (pH 7.5) 350 mM NaCl, 20% glycerol, 1% Igepal CA-630, 1 mM MgCl2, 5 mM DTT and Protease inhibitors (Sigma). The eluates were used as an HDAC enzyme source in an enzymatic reaction for 2 h at 37 C. The HDAC reactions were performed twice on various samples, and each time in triplicate.
Next tested was whether this wt 12-AA could compete with SALL4 in interacting with NuRD. A hepatocellular carcinoma cell line SNU-398 with abundant SALL4 expression was chosen for the following groups of experiences. Whether the wt 12-AA or its control (Mut and Scr) can bind to HDAC1 and HDAC2, the two NuRD components, was first evaluated. […] The histone deacetylase activity of the peptide pull-down complex was then measured using a Fluorescent Assay kit (Active Motif) (FIG. 1D). […]
First evaluated was whether the wild type peptide or the mutant or scrambled controls could bind to HDAC1 and HDAC2, which comprise part of the NuRD complex 38. […] To test this possibility, the histone deacetylase activity of the peptide pull-down complex was measured using a fluorescent assay kit (FIG. 8C). […]

primary human AML cells = experiment: Xenotransplantation of peptide-treated primary human AML cells into NSG mice; type: in vivo; conditions: 11 weeks after transplantation, cells treated with Pep-1 plus peptide
Experimental: FIGS. 12A-12F: Treatment of SALL4 peptide in primary human AML cells induces reduced cell viability in culture and impaired leukemic engraftment in vivo. (12A) Wild type peptide treatment reduces cell viability of human AML cells in culture, and this effect can be reversed in part by the PTEN inhibitor SF1670. 1×10^6 AML cells were treated with nothing (None), Pep-1 alone (Mock), or 20 μM wild type (wt), or scrambled peptide (scr), or wt peptide with 400 nM PTEN inhibitor SF1670 (wt+inh) or with 100 nM TSA for 48 hours, as described in the Methods. Cell viability of untreated primary AML cells is set as 100. […] Percentage of human CD45+ cells engrafted in BM, spleen (SP) and peripheral blood (PB) was determined by flow cytometry. […]
NSG (NOD.Cg-Prkdcscid Il2rgtm 1Wjl/SzJ, The Jackson Laboratory, ME, USA) mice were bred and maintained in the Children's Hospital Boston animal facility. […] The percentage of human CD45+ cells was calculated as follows: % human CD45+ cells=No. human CD45+ cells/(No. human CD45+ cells+No. mouse CD45+ cells)×100. […]
Subsequently tested was the ability of peptide treatment to inhibit the development of AML in vivo utilizing xenografts. […] In addition, the engraftment of human CD45+ cells was evaluated by flow cytometry (FIG. 12E). […]

T1 sequence (Q09028 whole entry, one chain of several): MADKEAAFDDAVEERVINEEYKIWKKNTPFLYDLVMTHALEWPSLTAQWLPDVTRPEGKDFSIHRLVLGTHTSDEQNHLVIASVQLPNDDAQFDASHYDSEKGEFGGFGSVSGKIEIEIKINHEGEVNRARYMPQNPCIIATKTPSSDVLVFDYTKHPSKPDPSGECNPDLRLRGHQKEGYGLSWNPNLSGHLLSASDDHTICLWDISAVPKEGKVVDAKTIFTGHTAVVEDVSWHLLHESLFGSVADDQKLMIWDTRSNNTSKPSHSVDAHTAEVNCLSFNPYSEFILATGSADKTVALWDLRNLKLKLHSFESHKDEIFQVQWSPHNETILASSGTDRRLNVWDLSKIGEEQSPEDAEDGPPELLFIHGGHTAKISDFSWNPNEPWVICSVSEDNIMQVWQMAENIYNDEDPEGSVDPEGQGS

IC50 (HDAC complex; read-out: IC50) [µM] | Substance | IC50 (HDAC complex) | HDAC activity of peptide pull-down complex (HDAC) | average engraftment of human CD45+ cells in bone marrow (primary human AML cells)
 | Scr peptide: same 12 amino acids as the wt peptide, but in a scrambled sequence; negative control (SRMRQKIHPKIQ) [reference compound] | could not be calculated due to the lack of binding activity | no HDAC activity | greater than 74%
5 | H-MSRRKQAKPQHI-OH [wt peptide, MSRRKQAKPQHI] |  | the most HDAC activity | 0.5%
